The data set has as its system rodent carcinogenicity bioassays, tumor incidence. Put plainly: CCRIS carcinogenicity studies. In outline:
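Archive of carcinogenicity, mutagenicity, tumor promotion and tumor inhibition results drawn from journals, NCI reports and other sources, expert-reviewed; covers 1985-2011 and is no longer updated.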

The mark [1] stands for this setting: Species: RAT, Strain/Sex: SPRAGUE-DAWLEY/FEMALE, Route: INHALATION, Dose: 0, 15, 45, 135 PPM 6 HR/D 5 D/WK FOR 24 MO (STUDY DURATION: 130 WK), Dose: 0, 15, 45, 135 PPM 6 HR/D 5 D/WK FOR 24 MO (STUDY DURATION: 130 WK).
Setting [2] is: Species: RAT, Strain/Sex: SPRAGUE-DAWLEY/MALE, Route: INHALATION, Dose: 0, 15, 45, 135 PPM 6 HR/D 5 D/WK FOR 24 MO (STUDY DURATION: 130 WK), Dose: 0, 15, 45, 135 PPM 6 HR/D 5 D/WK FOR 24 MO (STUDY DURATION: 130 WK).

Activity calls are given as the source filed them. No rule for the calls is given here.

In the case of `C=CC(=O)OC`, the carcinogen call is “inactive; negative” under setting [1] and “inactive; negative” under setting [2].

Turning to `O=[Si]=O`, the carcinogen call (Species: MOUSE, Strain/Sex: STRAIN-A/MALE, Route: INTRATRACHEAL, Dose: 0, 9.75 MG/KG IN SALINE 1/WK FOR 15 WK (STUDY DURATION: 20 WK)) is “inactive; negative”; the carcinogen call (Species: RAT, Strain/Sex: F344/FEMALE, Route: INHALATION, Dose: 0, 50 MG/M3 6 HR/D 5 D/WK FOR UP TO 24 MO (STUDY DURATION: 24 MO), Tumor Site: Type of Lesion: LUNG: CARCINOMA OR ADENOMA) was “active; positive”; the carcinogen call (Species: RAT, Strain/Sex: F344/MALE,FEMALE, Route: INHALATION, Dose: 0, 1 MG/M3 6 HR/D 5 D/WK FOR 24 MO (STUDY DURATION: 25.5 MO), Tumor Site: Type of Lesion: LUNG: TUMOR) was “active; positive”; the carcinogen call (Species: RAT, Strain/Sex: F344/MALE, Route: INHALATION, Dose: 0, 50 MG/M3 6 HR/D 5 D/WK FOR UP TO 24 MO (STUDY DURATION: 24 MO)) is “inactive; negative”; the carcinogen call (Species: RAT, Strain/Sex: INBRED-W/MALE, FEMALE, Route: INTRAPERITONEAL, Dose: 20 MG ALKALINE-WASHED MIN-U-SIL CRYSTALS (A COMMERCIAL FINE QUARTZ, 99% PURE) IN 0.4 ML SALINE AUTOCLAVED SUSPENSION (ST, Tumor Site: Type of Lesion: HEMATOPOIETIC SYSTEM: THYMOMA OR LYMPHOSARCOMA, LYMPHOMA) was “active; positive”; the carcinogen call (Species: RAT, Strain/Sex: INBRED-W/MALE, FEMALE, Route: INTRAPLEURAL, Dose: 20 MG ALKALINE-WASHED CRYSTALS (CRISTABOLITE FROM QUARTZ EXPOSED TO HIGH TEMPERATURE) IN A 0.4 ML SALINE AUTOCLAVED SUSP, Tumor Site: Type of Lesion: HEMATOPOIETIC SYSTEM: MALIGNANT HISTIOCYTIC LYMPHOMA, THYMOMA OR LYMPHOSARCOMA, LYMPHOMA) is “active; positive”. The carcinogen call reads like this: (Species: RAT, Strain/Sex: INBRED-W/MALE, FEMALE, Route: INTRAPLEURAL, Dose: 20 MG ALKALINE-WASHED CRYSTALS <5 µM IN SIZE IN A 0.4 ML SALINE AUTOCLAVED SUSPENSION INTO RIGHT AXILLA (STUDY DURATION:, Tumor Site: Type of Lesion: HEMATOPOIETIC SYSTEM: MALIGNANT HISTIOCYTIC LYMPHOMA, MALIGNANT TUMOR) “active; positive”; (Species: RAT, Strain/Sex: INBRED-W/MALE, FEMALE, Route: INTRAPLEURAL, Dose: 20 MG ALKALINE-WASHED MIN-U-SIL CRYSTALS (A COMMERCIAL FINE QUARTZ, 99% PURE) IN 0.4 ML SALINE AUTOCLAVED SUSPENSION INT, Tumor Site: Type of Lesion: HEMATOPOIETIC SYSTEM: LYMPHOMA) “active; positive”; (Species: Rat, Strain/Sex: Wistar/Female (48/group), Route: Intratracheal, Dose: 3 mg of 0.09-0.2 um particles given as 10 instillations before wk 26, study duration 112 wk or no treatment, Tumor Site: Type of Lesion: Lung: Bronchiolo-alveolar adenoma (2/37 experimental animals vs 0/46 control animals)) “active; positive, low incidence of benign tumors”.

On to `Cc1c(N)nc([C@H](CC(N)=O)NC[C@H](N)C(N)=O)nc1C(=O)N[C@H](C(=O)N[C@H](C)[C@@H](O)[C@H](C)C(=O)N[C@H](C(=O)NCCc1nc(-c2nc(C(=O)NCCCN[C@@H](C)c3ccccc3)cs2)cs1)[C@@H](C)O)[C@@H](O[C@@H]1O[C@@H](CO)[C@@H](O)[C@H](O)[C@@H]1O[C@H]1O[C@H](CO)[C@@H](O)[C@H](OC(N)=O)[C@@H]1O)c1cnc[nH]1`, for which the carcinogen call runs as follows: (Species: RAT, Strain/Sex: SPRAGUE-DAWLEY/FEMALE, Route: SUBCUTANEOUS, Dose: 0, 0.32, 0.63, 1.25, 2.50, 5.0 MG/KG IN SALINE 1/WK FOR 10 WK THEN 1/2 WK FOR 12 WK, 19 WK OR LIFETIME (STUDY DURATION:, Dose: 0, 0.32, 0.63, 1.25, 2.50, 5.0 MG/KG IN SALINE 1/WK FOR 10 WK THEN 1/2 WK FOR 12 WK, 19 WK OR LIFETIME (STUDY DURATION:, Tumor Site: Type of Lesion: KIDNEY: MALIGNANT OR BENIGN TUMOR, INJECTION SITE: MALIGNANT TUMOR) “active; positive”; (Species: RAT, Strain/Sex: SPRAGUE-DAWLEY/MALE, Route: SUBCUTANEOUS, Dose: 0, 0.32, 0.63, 1.25, 2.50, 5.0 MG/KG IN SALINE 1/WK FOR 10 WK THEN 1/2 WK FOR 12 WK, 19 WK OR LIFETIME (STUDY DURATION:, Dose: 0, 0.32, 0.63, 1.25, 2.50, 5.0 MG/KG IN SALINE 1/WK FOR 10 WK THEN 1/2 WK FOR 12 WK, 19 WK OR LIFETIME (STUDY DURATION:, Tumor Site: Type of Lesion: KIDNEY: MALIGNANT OR BENIGN TUMOR, INJECTION SITE: MALIGNANT TUMOR) “active; positive”.

For `Nc1cnn([C@@H]2O[C@H](CO)[C@@H](O)[C@H]2O)c(=O)n1`, the carcinogen call (Species: RAT, Strain/Sex: F344/MALE, Route: INTRAPERITONEAL, Dose: 0, 2.5 MG/KG IN 0.9% SALINE 3/WK FOR 1 YR (STUDY DURATION: 1 YR)) was “inactive; negative”.

With `C=CC(=O)OCCCC`, the carcinogen call reads like this: (Species: MOUSE, Strain/Sex: C3H/MALE, Route: DERMAL, Dose: 0, 0.2 MG IN 25 µL ACETONE 3/WK FOR LIFESPAN (STUDY DURATION: LIFESPAN)) “inactive; negative”; under setting [1], “inactive; negative”; under setting [2], “inactive; negative”.

Regarding `CCOP(=O)(SC(C)CC)N1CCSC1=O` (centres undefined), the carcinogen call is “inactive; negative” (Species: Mouse, Strain/Sex: CD-1/Female (60/Group), Route: Oral, Dose: 0, 1.11, 3.20, 10.4, 39.2 mg/kg/day of 93.3% fosthiazate in diet for 104 wk, study duration 102 wk, Dose: 0, 1.11, 3.20, 10.4, 39.2 mg/kg/day of 93.3% fosthiazate in diet for 104 wk, study duration 102 wk); “inactive; negative” (Species: Mouse, Strain/Sex: CD-1/Male (60/Group), Route: Oral, Dose: 0, 1.02, 3.10, 10.3, 30.5 mg/kg/day of 93.3% fosthiazate in diet for 104 wk, study duration 102 wk, Dose: 0, 1.02, 3.10, 10.3, 30.5 mg/kg/day of 93.3% fosthiazate in diet for 104 wk, study duration 102 wk); “inactive; negative” (Species: Rat, Strain/Sex: CD/Female (50/Group), Route: Oral, Dose: 0, 0.051, 0.50, 2.45, 11.69 mg/kg/day of 93.3% fosthiazate in diet for 104 wk, study duration 104 wk, Dose: 0, 0.051, 0.50, 2.45, 11.69 mg/kg/day of 93.3% fosthiazate in diet for 104 wk, study duration 104 wk); “inactive; negative” (Species: Rat, Strain/Sex: CD/Male (50/Group), Route: Oral, Dose: 0, 0.039, 0.38, 1.94, 8.34 mg/kg/day of 93.3% fosthiazate in diet for 104 wk, study duration 104 wk, Dose: 0, 0.039, 0.38, 1.94, 8.34 mg/kg/day of 93.3% fosthiazate in diet for 104 wk, study duration 104 wk).

In the case of `CCOP(=S)(OCC)Oc1nc(Cl)n(C(C)C)n1`, the carcinogen call was “inactive; negative” (Species: Mouse, Strain/Sex: Crl:CD-1(ICR)BR/Female (60/Group), Route: Oral, Dose: 0, 0.3, 1.0, 30, 300 ppm of 94.9% of isazophos in diet for 18 mo, study duration 18 mo, Dose: 0, 0.3, 1.0, 30, 300 ppm of 94.9% of isazophos in diet for 18 mo, study duration 18 mo); “inactive; negative” (Species: Mouse, Strain/Sex: Crl:CD-1(ICR)BR/Male (60/Group), Route: Oral, Dose: 0, 0.3, 1.0, 30, 300 ppm (reduced to 250 at wk 23) ppm of 94.9% of isazophos in diet for 18 mo, study duration 18 mo, Dose: 0, 0.3, 1.0, 30, 300 ppm (reduced to 250 at wk 23) ppm of 94.9% of isazophos in diet for 18 mo, study duration 18 mo); “inactive; negative” (Species: Rat, Strain/Sex: Crl:CD(SD)BR/Female (60/Group), Route: Oral, Dose: 0, 0.1, 1.0, 300 reduced to 250 at wk 22 and then to 200 ppm at wk 66 of 94.9% of isazophos in diet for 24 mo, study dur, Dose: 0, 0.1, 1.0, 300 reduced to 250 at wk 22 and then to 200 ppm at wk 66 of 94.9% of isazophos in diet for 24 mo, study dur); “inactive; negative” (Species: Rat, Strain/Sex: Crl:CD(SD)BR/Male (60/Group), Route: Oral, Dose: 0, 0.1, 1.0, 300 ppm of 94.9% of isazophos in diet for 24 mo, study duration 24 mo, Dose: 0, 0.1, 1.0, 300 ppm of 94.9% of isazophos in diet for 24 mo, study duration 24 mo).

Take `CC(C)N=C=NC(C)C`: the carcinogen call is “inactive; negative” (Species: Mouse, Strain/Sex: B6C3F1/Female (50/Group), Route: Dermal, Dose: 0, 10, 20, 40 mg/kg in anhydrous ethanol 5 d/wk for 2 yr, Dose: 0, 10, 20, 40 mg/kg in anhydrous ethanol 5 d/wk for 2 yr); “inactive; negative” (Species: Mouse, Strain/Sex: B6C3F1/Male (50/Group), Route: Dermal, Dose: 0, 10, 20, 40 mg/kg in anhydrous ethanol 5 d/wk for 2 yr, Dose: 0, 10, 20, 40 mg/kg in anhydrous ethanol 5 d/wk for 2 yr); “inactive; negative” (Species: Rat, Strain/Sex: F344/N/Female (50/Group), Route: Dermal, Dose: 0, 10, 20, 40 mg/kg in anhydrous ethanol 5 d/wk for 2 yr, Dose: 0, 10, 20, 40 mg/kg in anhydrous ethanol 5 d/wk for 2 yr); “inactive; negative” (Species: Rat, Strain/Sex: F344/N/Male (50/Group), Route: Dermal, Dose: 0, 10, 20, 40 mg/kg in anhydrous ethanol 5 d/wk for 2 yr, Dose: 0, 10, 20, 40 mg/kg in anhydrous ethanol 5 d/wk for 2 yr).

The values are drawn from PubChem BioAssay AID1259411 (Chemical Carcinogenesis Research Information System (CCRIS), 2018).
